The values that follow come from patent publication US11739070B2, “C5A receptor modulators” (IDORSIA PHARMACEUTICALS LTD, priority 2018, dated 2023).

As a reminder, the IC50 is the point on the concentration scale where inhibition reaches its midpoint.

The assay has as its target T1, C5AR1 (Homo sapiens, UniProt P21730).
T1 construct: host or cells: CHO-K1
T1 sequence (P21730 1-350): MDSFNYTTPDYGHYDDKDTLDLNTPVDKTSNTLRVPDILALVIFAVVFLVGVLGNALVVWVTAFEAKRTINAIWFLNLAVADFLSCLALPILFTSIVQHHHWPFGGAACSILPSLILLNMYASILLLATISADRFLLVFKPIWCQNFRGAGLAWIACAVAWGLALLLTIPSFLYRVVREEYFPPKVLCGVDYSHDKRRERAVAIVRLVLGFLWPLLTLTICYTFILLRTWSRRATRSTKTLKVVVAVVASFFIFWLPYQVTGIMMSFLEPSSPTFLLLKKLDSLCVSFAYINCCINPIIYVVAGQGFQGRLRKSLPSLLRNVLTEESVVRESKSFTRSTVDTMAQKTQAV
Kind of assay: hC5a DISCO IC50 assay (PathHunter beta-arrestin, antagonist mode). Format: cell-based. The note with it: CHO-K1 C5AR1 beta-arrestin cell line; antagonist vs 1-10 nM C5a agonist; geometric mean values; read-out: C5aR IC50. Summed up:
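Antagonist added first, then 1-10 nM C5a agonist; cells incubated 1.5 h at 37 °C. Beta-arrestin signal developed with PathHunter detection reagent, 45 min at RT. IC50 in nmol/l from serial antagonist dilutions, reported as geometric mean of several measurements.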
Take `COc1cccc2c1n(Cc1ccccc1C(F)(F)F)c(=O)n2[C@@H]1CCN(c2nncc(Cl)c2Cl)C1` [Example 157, 1-[(R)-1-(4,5-Dichloro-pyridazin-3-yl)-pyrrolidin-3-yl]-4-methoxy-3-(2-trifluoromethyl-benzyl)-1,3-dihydro-benzoimidazol-2-one]: the concentration for half-maximal inhibition (IC50) was 630 nM. On to `COc1cccc2c1n(Cc1ccccc1OC1COC1)c(=O)n2C1CCN(c2c(C)cccc2F)CC1` [Example 225, 1-[1-(2-Fluoro-6-methyl-phenyl)-piperidin-4-yl]-4-methoxy-3-[2-(oxetan-3-yloxy)-benzyl]-1,3-dihydro-benzoimidazol-2-one], for which the IC50 is 40 nM. As for `COc1ccccc1Cn1c(=O)n([C@@H]2CCN(c3c(F)cccc3F)C2)c2cccc(OC)c21` [Example 68, 1-[(R)-1-(2,6-Difluoro-phenyl)-pyrrolidin-3-yl]-4-methoxy-3-(2-methoxy-benzyl)-1,3-dihydro-benzoimidazol-2-one], the IC50 is 84 nM. With `COc1ncncc1Cn1c(=O)n([C@@H]2CCN(c3c(F)cccc3C#N)C2)c2cccc(OC)c21` [Example 114, 3-Fluoro-2-{(R)-3-[4-methoxy-3-(4-methoxy-pyrimidin-5-ylmethyl)-2-oxo-2,3-dihydro-benzoimidazol-1-yl]-pyrrolidin-1-yl}-benzonitrile], the IC50 is 1540 nM. With `COc1cccc2c1n(Cc1ccccc1C(F)(F)F)c(=O)n2[C@@H]1CCN(c2c(N)cccc2F)C1` [Example 155, 1-[(R)-1-(2-Amino-6-fluoro-phenyl)-pyrrolidin-3-yl]-4-methoxy-3-(2-trifluoromethyl-benzyl)-1,3-dihydro-benzoimidazol-2-one], the IC50 worked out at 15 nM. For `COc1cccc2c1n(Cc1ccccc1C(F)(F)F)c(=O)n2C1CCN(C(=O)c2ccccc2)CC1` [Example 30, 1-(1-Benzoyl-piperidin-4-yl)-4-methoxy-3-(2-trifluoromethyl-benzyl)-1,3-dihydro-benzoimidazol-2-one], the IC50 was determined as 1520 nM. The same measure for `COc1cccc2c1n(Cc1ccccc1C(F)(F)F)c(=O)n2[C@@H]1CCN(c2ccccc2F)C1` [Example 160, 1-[(R)-1-(2-Fluoro-phenyl)-pyrrolidin-3-yl]-4-methoxy-3-(2-trifluoromethyl-benzyl)-1,3-dihydro-benzoimidazol-2-one]: 35 nM. Take `COc1cccc2c1n(Cc1ccccc1C1CC1)c(=O)n2C1CCN(c2c(C)cccc2F)CC1` [Example 223, 3-(2-Cyclopropyl-benzyl)-1-[1-(2-fluoro-6-methyl-phenyl)-piperidin-4-yl]-4-methoxy-1,3-dihydro-benzoimidazol-2-one]: the IC50 is 130 nM. The same measure for `COc1cccc2c1n(Cc1ccccc1C(F)(F)F)c(=O)n2[C@@H]1CCN(c2c(F)cccc2[N+](=O)[O-])C1` [Example 154, 1-[(R)-1-(2-Fluoro-6-nitro-phenyl)-pyrrolidin-3-yl]-4-methoxy-3-(2-trifluoromethyl-benzyl)-1,3-dihydro-benzoimidazol-2-one]: 23 nM. For `COc1ccnc(OC)c1N1CCC(n2c(=O)n(Cc3ccccc3C(F)(F)F)c3c(OC)cccc32)CC1` [Example 248, 1-(2′,4′-Dimethoxy-3,4,5,6-tetrahydro-2H-[1,3′]bipyridinyl-4-yl)-4-methoxy-3-(2-trifluoromethyl-benzyl)-1,3-dihydro-benzoimidazol-2-one], the IC50 was 182 nM.

In the case of `COc1cccc2c1n(Cc1cnccc1C(C)C)c(=O)n2[C@@H]1CCN(c2c(C)cccc2F)C1` [Example 180, 1-[(R)-1-(2-Fluoro-6-methyl-phenyl)-pyrrolidin-3-yl]-3-(4-isopropyl-pyridin-3-ylmethyl)-4-methoxy-1,3-dihydro-benzoimidazol-2-one], the IC50 is 9 nM. The same measure for `COc1cccc2c1n(Cc1ccccc1C(F)(F)F)c(=O)n2C1CN(c2c(C)cccc2F)C1` [Example 215, 1-[1-(2-Fluoro-6-methyl-phenyl)-azetidin-3-yl]-4-methoxy-3-(2-trifluoromethyl-benzyl)-1,3-dihydro-benzoimidazol-2-one]: 27 nM; for `COc1cccc2c1n(Cc1ccccc1C(F)(F)F)c(=O)n2[C@@H]1CCN(C)C1` [Example 31, 4-Methoxy-1-((R)-1-methyl-pyrrolidin-3-yl)-3-(2-trifluoromethyl-benzyl)-1,3-dihydro-benzoimidazol-2-one]: 3450 nM. With `COc1cncc2c1n(Cc1ccccc1C(F)(F)F)c(=O)n2C1CCN(c2c(C)cccc2F)CC1` [Example 229, 3-[1-(2-Fluoro-6-methyl-phenyl)-piperidin-4-yl]-7-methoxy-1-(2-trifluoromethyl-benzyl)-1,3-dihydro-imidazo[4,5-c]pyridin-2-one], the IC50 amounted to 268 nM. Regarding `COc1nccnc1Cn1c(=O)n([C@@H]2CCN(c3c(C)cccc3F)C2)c2cccc(OC)c21` [Example 169, 1-[(R)-1-(2-Fluoro-6-methyl-phenyl)-pyrrolidin-3-yl]-4-methoxy-3-(3-methoxy-pyrazin-2-ylmethyl)-1,3-dihydro-benzoimidazol-2-one], the IC50 was 17 nM.

Take `COc1cccc2c1n(Cc1nnccc1C)c(=O)n2[C@@H]1CCN(c2c(C)cccc2F)C1` [Example 174, 1-[(R)-1-(2-Fluoro-6-methyl-phenyl)-pyrrolidin-3-yl]-4-methoxy-3-(4-methyl-pyridazin-3-ylmethyl)-1,3-dihydro-benzoimidazol-2-one]: the IC50 came out at 544 nM. As to `COc1cccc2c1n(Cc1ccccc1C(F)(F)F)c(=O)n2[C@@H]1CCN(c2c(F)cccc2C(C)N2CC(OC)C2)C1` (stereo partly drawn) [Example 163, 1-((R)-1-{2-Fluoro-6-[1-(3-methoxy-azetidin-1-yl)-ethyl]-phenyl}-pyrrolidin-3-yl)-4-methoxy-3-(2-trifluoromethyl-benzyl)-1,3-dihydro-benzoimidazol-2-one], the IC50 worked out at 591 nM. As for `COc1cccc2c1n(Cc1ccccc1C(F)(F)F)c(=O)n2C1CCN(c2c(C=O)c(C3CC3)nn2C)CC1` [Example 14, 3-Cyclopropyl-5-{4-[4-methoxy-2-oxo-3-(2-trifluoromethyl-benzyl)-2,3-dihydro-benzoimidazol-1-yl]-piperidin-1-yl}-1-methyl-1H-pyrazole-4-carbaldehyde], the concentration for half-maximal inhibition (IC50) was 216 nM. As to `COc1cccc2c1n(Cc1ccccc1C(F)(F)F)c(=O)n2[C@@H]1CCN(c2c(C)cncc2C)C1` [Example 36, 1-[(R)-1-(3,5-Dimethyl-pyridin-4-yl)-pyrrolidin-3-yl]-4-methoxy-3-(2-trifluoromethyl-benzyl)-1,3-dihydro-benzoimidazol-2-one], the IC50 came to 450 nM. The same measure for `COc1cccc2c1n(Cc1cncnc1C(F)(F)F)c(=O)n2[C@@H]1CCN(c2c(C)cccc2F)C1` [Example 176, 1-[(R)-1-(2-Fluoro-6-methyl-phenyl)-pyrrolidin-3-yl]-4-methoxy-3-(4-trifluoromethyl-pyrimidin-5-ylmethyl)-1,3-dihydro-benzoimidazol-2-one]: 48 nM; for `COc1cccc2c1n(Cc1csc(C(F)(F)F)n1)c(=O)n2[C@@H]1CCN(c2c(C)cccc2F)C1` [Example 218, 1-[(R)-1-(2-Fluoro-6-methyl-phenyl)-pyrrolidin-3-yl]-4-methoxy-3-(2-trifluoromethyl-thiazol-4-ylmethyl)-1,3-dihydro-benzoimidazol-2-one]: 346 nM; for `COc1cccc2c1n(Cc1ccccc1C(F)(F)F)c(=O)n2C1CCN(c2ccccc2OCC2CC2)CC1` [Example 240, 1-[1-(2-Cyclopropylmethoxy-phenyl)-piperidin-4-yl]-4-methoxy-3-(2-trifluoromethyl-benzyl)-1,3-dihydro-benzoimidazol-2-one]: 46 nM. With `COc1cccc2c1n(Cc1ccccc1C(F)(F)F)c(=O)n2[C@@H]1CCN(c2c(F)cccc2C(C)O)C1` (stereo partly drawn) [Example 89, 1-{(R)-1-[2-Fluoro-6-(1-hydroxy-ethyl)-phenyl]-pyrrolidin-3-yl}-4-methoxy-3-(2-trifluoromethyl-benzyl)-1,3-dihydro-benzoimidazol-2-one], the IC50 came out at 44 nM. `COc1cccc2c1n(Cc1ccccc1C(F)(F)F)c(=O)n2[C@@H]1CCN(c2c(F)cccc2CN2CCCCC2)C1` [Example 133, 1-[(R)-1-(2-Fluoro-6-piperidin-1-ylmethyl-phenyl)-pyrrolidin-3-yl]-4-methoxy-3-(2-trifluoromethyl-benzyl)-1,3-dihydro-benzoimidazol-2-one]: the IC50 stood at 70 nM. For the compound `COc1cccc2c1n(Cc1ncccc1C(F)(F)F)c(=O)n2C1CCN(c2c(C)cccc2C)CC1` [Example 75, 1-[1-(2,6-Dimethyl-phenyl)-piperidin-4-yl]-4-methoxy-3-(3-trifluoromethyl-pyridin-2-ylmethyl)-1,3-dihydro-benzoimidazol-2-one], the IC50 stood at 27 nM. For the compound `COc1nccnc1Cn1c(=O)n(C2CCN(c3c(C)cccc3F)CC2)c2cccc(OC)c21` [Example 170, 1-[1-(2-Fluoro-6-methyl-phenyl)-piperidin-4-yl]-4-methoxy-3-(3-methoxy-pyrazin-2-ylmethyl)-1,3-dihydro-benzoimidazol-2-one], the IC50 turned out to be 45 nM.

With `COc1cccc(F)c1N1CC[C@@H](n2c(=O)n(Cc3ccccc3C(F)(F)F)c3c(OC)nccc32)C1` [Example 49, 1-[(R)-1-(2-Fluoro-6-methoxy-phenyl)-pyrrolidin-3-yl]-4-methoxy-3-(2-trifluoromethyl-benzyl)-1,3-dihydro-imidazo[4,5-c]pyridin-2-one], the IC50 worked out at 132 nM.
